Species: Rattus norvegicus
Assay: DrugMatrix - Regimen: Daily Repeat
Format: toxicity, organism-based, Sprague-Dawley
Parameters: regimen Daily Repeat, gender Male, age 6-8 weeks
Conditions: in vivo, po, route oral GAVAGE, vehicle .5 % CMC; for ABSOLUTE BASOPHIL / ABSOLUTE EOSINOPHIL / ABSOLUTE LYMPHOCYTE / ABSOLUTE MONOCYTE / ABSOLUTE SEGMENTED NEUTROPHIL / BASOPHIL / EOSINOPHIL / ERYTHROCYTE COUNT / HEMATOCRIT / HEMOGLOBIN / LEUKOCYTE COUNT / LYMPHOCYTE / MEAN CORPUSCULAR HEMOGLOBIN / MEAN CORPUSCULAR VOLUME / MONOCYTE / NEUTROPHIL / NUCLEATED RED BLOOD CELLS / PLATELET COUNT: tissue Blood; for ALANINE AMINOTRANSFERASE / ALBUMIN / ALKALINE PHOSPHATASE / ASPARTATE AMINOTRANSFERASE / BLOOD UREA NITROGEN / CARBON DIOXIDE / CHLORIDE / CHOLESTEROL / CREATINE PHOSPHOKINASE / CREATININE / GLUCOSE / LACTATE DEHYDROGENASE / LIPASE / PHOSPHORUS / POTASSIUM / SODIUM / TOTAL BILIRUBIN / TOTAL PROTEIN / URIC ACID: tissue Plasma
[1] = 68 mg/kg, 72 h, dose level Low, time 3 day
[2] = 68 mg/kg, 120 h, dose level Low, time 5 day
[3] = 750 mg/kg, 72 h, dose level High, time 3 day
[4] = 750 mg/kg, 120 h, dose level High, time 5 day

C(=C\c1ccccc1)/CN1CCN(C(c2ccccc2)c2ccccc2)CC1 [CINNARIZINE]
ABSOLUTE BASOPHIL [1]: 0 CELLS/uL
ABSOLUTE EOSINOPHIL [1]: 0 CELLS/uL
ABSOLUTE LYMPHOCYTE [1]: 14250 CELLS/uL
ABSOLUTE MONOCYTE [1]: 268.67 CELLS/uL
ABSOLUTE SEGMENTED NEUTROPHIL [1]: 1614.67 CELLS/uL
BASOPHIL [1]: 0%
EOSINOPHIL [1]: 0%
ERYTHROCYTE COUNT [1]: 5.37 x10E6/uL
HEMATOCRIT [1]: 33.93%
HEMOGLOBIN [1]: 12.87 G/DL
LEUKOCYTE COUNT [1]: 16.13 x10E3/uL
LYMPHOCYTE [1]: 88.33%
MEAN CORPUSCULAR HEMOGLOBIN [1]: 24 pg
MEAN CORPUSCULAR VOLUME [1]: 63.2 fL
MONOCYTE [1]: 1.67%
NEUTROPHIL [1]: 10%
NUCLEATED RED BLOOD CELLS [1]: 0 /100WBC
PLATELET COUNT [1]: 1225 x10E3/uL
ALANINE AMINOTRANSFERASE [1]: 45.33 u/L
ALBUMIN [1]: 4.37 G/DL
ALKALINE PHOSPHATASE [1]: 323 u/L
ASPARTATE AMINOTRANSFERASE [1]: 68.67 u/L
BLOOD UREA NITROGEN [1]: 15.33 mg/dL
CARBON DIOXIDE [1]: 24.33 mmol/L
CHLORIDE [1]: 102 MEQ/L
CHOLESTEROL [1]: 67.33 mg/dL
CREATINE PHOSPHOKINASE [1]: 220.67 u/L
CREATININE [1]: 0.17 mg/dL
GLUCOSE [1]: 136.33 mg/dL
LACTATE DEHYDROGENASE [1]: 186 u/L
LIPASE [1]: 9 u/L
PHOSPHORUS [1]: 11.57 mg/dL
POTASSIUM [1]: 6.72 MEQ/L
SODIUM [1]: 145.13 MEQ/L
TOTAL BILIRUBIN [1]: 0.2 mg/dL
TOTAL PROTEIN [1]: 5.33 G/DL
URIC ACID [1]: 1.7 mg/dL
ABSOLUTE BASOPHIL [2]: 0 CELLS/uL
ABSOLUTE EOSINOPHIL [2]: 62.67 CELLS/uL
ABSOLUTE LYMPHOCYTE [2]: 17347 CELLS/uL
ABSOLUTE MONOCYTE [2]: 686 CELLS/uL
ABSOLUTE SEGMENTED NEUTROPHIL [2]: 2204.33 CELLS/uL
BASOPHIL [2]: 0%
EOSINOPHIL [2]: 0.33%
ERYTHROCYTE COUNT [2]: 5.91 x10E6/uL
HEMATOCRIT [2]: 36.67%
HEMOGLOBIN [2]: 13.63 G/DL
LEUKOCYTE COUNT [2]: 20.3 x10E3/uL
LYMPHOCYTE [2]: 85.33%
MEAN CORPUSCULAR HEMOGLOBIN [2]: 23.13 pg
MEAN CORPUSCULAR VOLUME [2]: 62.13 fL
MONOCYTE [2]: 3.33%
NEUTROPHIL [2]: 11%
NUCLEATED RED BLOOD CELLS [2]: 0 /100WBC
PLATELET COUNT [2]: 1382.33 x10E3/uL
ALANINE AMINOTRANSFERASE [2]: 44 u/L
ALBUMIN [2]: 4.3 G/DL
ALKALINE PHOSPHATASE [2]: 307 u/L
ASPARTATE AMINOTRANSFERASE [2]: 78.33 u/L
BLOOD UREA NITROGEN [2]: 21.67 mg/dL
CARBON DIOXIDE [2]: 26 mmol/L
CHLORIDE [2]: 107.33 MEQ/L
CHOLESTEROL [2]: 53.33 mg/dL
CREATINE PHOSPHOKINASE [2]: 288.33 u/L
CREATININE [2]: 0.19 mg/dL
GLUCOSE [2]: 133 mg/dL
LACTATE DEHYDROGENASE [2]: 263 u/L
LIPASE [2]: 8.67 u/L
PHOSPHORUS [2]: 11.3 mg/dL
POTASSIUM [2]: 6.89 MEQ/L
SODIUM [2]: 145.37 MEQ/L
TOTAL BILIRUBIN [2]: 0.17 mg/dL
TOTAL PROTEIN [2]: 6.13 G/DL
URIC ACID [2]: 1.5 mg/dL
ABSOLUTE BASOPHIL [3]: 0 CELLS/uL
ABSOLUTE EOSINOPHIL [3]: 121.67 CELLS/uL
ABSOLUTE LYMPHOCYTE [3]: 10962.67 CELLS/uL
ABSOLUTE MONOCYTE [3]: 242 CELLS/uL
ABSOLUTE SEGMENTED NEUTROPHIL [3]: 773.67 CELLS/uL
BASOPHIL [3]: 0%
EOSINOPHIL [3]: 1%
ERYTHROCYTE COUNT [3]: 6.6 x10E6/uL
HEMATOCRIT [3]: 41.67%
HEMOGLOBIN [3]: 15.33 G/DL
LEUKOCYTE COUNT [3]: 12.1 x10E3/uL
LYMPHOCYTE [3]: 90.67%
MEAN CORPUSCULAR HEMOGLOBIN [3]: 23.23 pg
MEAN CORPUSCULAR VOLUME [3]: 63.07 fL
MONOCYTE [3]: 2%
NEUTROPHIL [3]: 6.33%
NUCLEATED RED BLOOD CELLS [3]: 0 /100WBC
PLATELET COUNT [3]: 1456.67 x10E3/uL
ALANINE AMINOTRANSFERASE [3]: 52.33 u/L
ALBUMIN [3]: 4.3 G/DL
ALKALINE PHOSPHATASE [3]: 423.33 u/L
ASPARTATE AMINOTRANSFERASE [3]: 79.33 u/L
BLOOD UREA NITROGEN [3]: 19 mg/dL
CARBON DIOXIDE [3]: 26.67 mmol/L
CHLORIDE [3]: 99.33 MEQ/L
CHOLESTEROL [3]: 58.67 mg/dL
CREATINE PHOSPHOKINASE [3]: 294.67 u/L
CREATININE [3]: 0.19 mg/dL
GLUCOSE [3]: 138 mg/dL
LACTATE DEHYDROGENASE [3]: 240.67 u/L
LIPASE [3]: 10 u/L
PHOSPHORUS [3]: 11.73 mg/dL
POTASSIUM [3]: 6.79 MEQ/L
SODIUM [3]: 141.93 MEQ/L
TOTAL BILIRUBIN [3]: 0.17 mg/dL
TOTAL PROTEIN [3]: 6.1 G/DL
URIC ACID [3]: 1.8 mg/dL
ABSOLUTE BASOPHIL [4]: 0 CELLS/uL
ABSOLUTE EOSINOPHIL [4]: 0 CELLS/uL
ABSOLUTE LYMPHOCYTE [4]: 10935.67 CELLS/uL
ABSOLUTE MONOCYTE [4]: 287 CELLS/uL
ABSOLUTE SEGMENTED NEUTROPHIL [4]: 1277.33 CELLS/uL
BASOPHIL [4]: 0%
EOSINOPHIL [4]: 0%
ERYTHROCYTE COUNT [4]: 6.35 x10E6/uL
HEMATOCRIT [4]: 38.33%
HEMOGLOBIN [4]: 14.23 G/DL
LEUKOCYTE COUNT [4]: 12.5 x10E3/uL
LYMPHOCYTE [4]: 87.67%
MEAN CORPUSCULAR HEMOGLOBIN [4]: 22.4 pg
MEAN CORPUSCULAR VOLUME [4]: 60.4 fL
MONOCYTE [4]: 2.33%
NEUTROPHIL [4]: 10%
NUCLEATED RED BLOOD CELLS [4]: 0 /100WBC
PLATELET COUNT [4]: 1123.67 x10E3/uL
ALANINE AMINOTRANSFERASE [4]: 56 u/L
ALBUMIN [4]: 4.1 G/DL
ALKALINE PHOSPHATASE [4]: 361.67 u/L
ASPARTATE AMINOTRANSFERASE [4]: 78.67 u/L
BLOOD UREA NITROGEN [4]: 17.67 mg/dL
CARBON DIOXIDE [4]: 27 mmol/L
CHLORIDE [4]: 103.67 MEQ/L
CHOLESTEROL [4]: 72.33 mg/dL
CREATINE PHOSPHOKINASE [4]: 366.67 u/L
CREATININE [4]: 0.16 mg/dL
GLUCOSE [4]: 155.33 mg/dL
LACTATE DEHYDROGENASE [4]: 194.67 u/L
LIPASE [4]: 10 u/L
PHOSPHORUS [4]: 12.9 mg/dL
POTASSIUM [4]: 7.06 MEQ/L
SODIUM [4]: 147.1 MEQ/L
TOTAL BILIRUBIN [4]: 0.17 mg/dL
TOTAL PROTEIN [4]: 5.9 G/DL
URIC ACID [4]: 2 mg/dL

From ChEMBL document CHEMBL3885881, “DrugMatrix”
